Assay [1] deals with LOLSS. As to the kind of experiment: Greenhouse trial: resistant biotypes following PE application (test method 9). The class given is in vivo, Lolium species. Conditions: PE, g of AS/ha: (A) 90, (B) 1200, (C) 140, (A)+(B)+(C) 90 + 1200 + 140, iodosulfuron 10; for activity LOLSS resistant: resistant biotype; for activity LOLSS sensitive: sensitive biotype. The method, then:
(§1) In the standard design of the test, seeds of various broad-leaved weed and weed grass biotypes (origins) were sown in a 8-13 cm diameter pot filled with natural soil of a standard field soil (loamy silt; non-sterile) and covered with a covering soil layer of about 1 cm. The pots were then cultivated in a greenhouse (12-16 h of light, temperature day 20-22° C., night 15-18° C.) until the time of application. The pots were treated on a laboratory track sprayer with spray liquors comprising the compositions according to the invention, mixtures of the prior art or components used individually. Application of the active compounds or active compound combinations formulated as WG, WP, EC or otherwise was carried out at the appropriate growth stages of the plants. The application rate for the spray application was 100-600 l of water/ha. After the treatment, the plants were returned to the greenhouses.
(§2) About 3 weeks after the application, the soil action or/and foliar action was assessed visually according to a scale of 0-100% in comparison to an untreated comparative group: 0%=no noticeable effect compared to the untreated comparative group; 100%=full effect compared to the untreated comparative group.
(§3) (notes: the term “seeds” also includes vegetative propagation forms such as, for example, rhizome pieces; abbreviations used: h light=hours of illumination, g of AS/ha=gram of active substance per hectare, I/ha=liter per hectare, S=sensitive, R=resistant) • 1. Pre-emergence action against weeds: seeds of various broad-leaved weed and weed grass biotypes (origins) were sown in a 8-13 cm diameter pot filled with natural soil of a standard field soil (loamy silt; non-sterile) and covered with a covering soil layer of about 1 cm. The pots were then cultivated in a greenhouse (12-16 h of light, temperature day 20-22° C., night 15-18° C.) until the time of application. The pots were treated at the BBCH stage 00-10 of the seeds/plants on a laboratory track sprayer with spray liquors comprising the compositions according to the invention, mixtures or components used individually, as WG, WP, EC or other formulations. The application rate for the spray application was 100-600 l of water/ha. After the treatment, the plants were returned to the greenhouses and, when required, treated with fertilizer and watered. • 2. Post-emergence action against weeds: seeds of various broad-leaved weed and weed grass biotypes (origins) were sown in a 8-13 cm diameter pot filled with natural soil of a standard field soil (loamy silt; non-sterile) and covered with a covering soil layer of about 1 cm. The pots were then cultivated in a greenhouse (12-16 h of light, temperature day 20-22° C., night 15-18° C.) until the time of application. The pots were treated at various BBCH stages between 11-25 of the seeds/plants, i.e. generally between two to three weeks after the start of the cultivation, on a laboratory track sprayer with spray liquors comprising the compositions according to the invention, mixtures or components used individually, as WG, WP, EC or other formulations. The application rate for the spray application was 100-600 l of water/ha. After the treatment, the plants were returned to the greenhouses and, when required, treated with fertilizer and watered. • 3. Pre-emergence action against weeds with and without incorporation of active compound: seeds of various broad-leaved weed and weed grass biotypes (origins) were sown in a 8-13 cm diameter pot filled with natural soil of a standard field soil (loamy silt; non-sterile). […]

Assay [2] deals with POAAN. As to the kind of experiment: Greenhouse trial: PO application (test methods 2 and 5). The format is in vivo, Poa annua. The settings on record: g of AS/ha: (A) 120, (B) 1600, (C) 140, (A)+(B)+(C) 120 + 1600 + 140. On the procedure: as §1, §2
(§4) (notes: the term “seeds” also includes vegetative propagation forms such as, for example, rhizome pieces; abbreviations used: h light=hours of illumination, g of AS/ha=gram of active substance per hectare, I/ha=liter per hectare, S=sensitive, R=resistant) • 1. Pre-emergence action against weeds: seeds of various broad-leaved weed and weed grass biotypes (origins) were sown in a 8-13 cm diameter pot filled with natural soil of a standard field soil (loamy silt; non-sterile) and covered with a covering soil layer of about 1 cm. The pots were then cultivated in a greenhouse (12-16 h of light, temperature day 20-22° C., night 15-18° C.) until the time of application. […]

Assay [3] deals with LOLPE. As to the kind of experiment: Greenhouse trial: PE application vs application 7 days prior to sowing (test method 6). The class given is in vivo, Lolium perenne. The method, then: as §1, §2, §3
For assay [4], the system named is AVEFA. The assay is described as above. The format is in vivo, Avena fatua. On the procedure:
as §1, §2, §3

Assay [5] deals with MATCH. As to the kind of experiment: Greenhouse trial: different soil types (test method 8). The format is in vivo, Matricaria chamomilla. The settings on record: g of AS/ha: (A) 120, (B) 1200, (C) 140, (A)+(B)+(C) 120 + 1200 + 140. On the procedure: as §1, §2, §3
Assay [6] deals with LOLPE. The description is as above. The format is in vivo, Lolium perenne. The settings on record: g of AS/ha: (A) 120, (B) 1200, (C) 90, (A)+(B)+(C) 120 + 1200 + 90. The method, then: as §1, §2, §3
The test system of assay [7] is AVEFA. As to the kind of experiment: Greenhouse trial: PE application with different irrigation variants (test method 7). The class given is in vivo, Avena fatua. Conditions: g of AS/ha: (A) 120, (B) 1200, (C) 140, (A)+(B)+(C) 120 + 1200 + 140. The method, then:
as §1, §2, §3

The test system of assay [8] is MATCH. The assay is described as above. The format is in vivo, Matricaria chamomilla. The settings on record: g of AS/ha: (A) 120, (B) 1200, (C) 140, (A)+(B)+(C) 120 + 1200 + 140. The method, then:
as §1, §2, §3

Assay [9] has as its system POAAN. As to the kind of experiment: Greenhouse trial: PE soil application vs incorporation into the soil (test methods 1, 3 and 4). The format is in vivo, Poa annua. The settings on record: g of AS/ha: (A) 120, (B) 1200, (C) 140, (A)+(B)+(C) 120 + 1200 + 140. On the procedure:
as §1, §2, §3

Assay [10] has as its system STEME. As to the kind of experiment: Greenhouse trial: resistant biotypes following PE application (test method 9). The class given is in vivo, Stellaria media. Conditions: g of AS/ha: (A) 90, (B) 1200, (C) 140, (A)+(B)+(C) 90 + 1200 + 140, iodosulfuron 10; for activity STEME resistant / activity STEME sensitive: PE; for activity STEME resistant: resistant biotype; for activity STEME sensitive: sensitive biotype. The method, then:
as §1, §2, §3

Assay [11] deals with MATCH. As to the kind of experiment: Greenhouse trial: different sowing depths on PE application (test method 10). The settings on record: g of AS/ha: (A) 90, (B) 1200, (C) 140, (A)+(B)+(C) 90 + 1200 + 140; for activity MATCH 5 mm: sowing depth 5 mm; for activity MATCH 20 mm: sowing depth 20 mm. The class given is in vivo, Matricaria chamomilla. The method, then: as §1, §2, §3

In assay [12] the test system is LOLPE. As to the kind of experiment: Greenhouse trial: PE application with different irrigation variants (test method 7). The class given is in vivo, Lolium perenne. The settings on record: g of AS/ha: (A) 120, (B) 1200, (C) 140, (A)+(B)+(C) 120 + 1200 + 140. The method, then:
as §1, §2, §3

The subject of assay [13] is APESV. As to the kind of experiment: Greenhouse trial: PO application (test methods 2 and 5). The format is in vivo, Apera Spica-venti. Conditions: g of AS/ha: (A) 120, (B) 1600, (C) 140, (A)+(B)+(C) 120 + 1600 + 140. On the procedure: as §1, §2, §4
The test system of assay [14] is APESV. As to the kind of experiment: Greenhouse trial: different sowing depths on PE application (test method 10). Conditions: g of AS/ha: (A) 90, (B) 1200, (C) 140, (A)+(B)+(C) 90 + 1200 + 140; for activity APESV 5 mm: sowing depth 5 mm; for activity APESV 20 mm: sowing depth 20 mm. The format is in vivo, Apera Spica-venti. On the procedure: as §1, §2, §3
Setting [15] is: PE application, g of AS/ha: (A) 90, (B) 1200, (C) 140, mixture 90 + 1200 + 140.
Setting [16] is: application 7 days prior to sowing, g of AS/ha: (A) 90, (B) 1200, (C) 140, (A)+(B)+(C) 90 + 1200 + 140.

The values below come from patent publication US20110152088A1, “Herbicidal Composition Comprising Flufenacet” (BAYER CROPSCIENCE AG, priority 2009, published 2011).

`CC(C)N(C(=O)COc1nnc(C(F)(F)F)s1)c1ccc(F)cc1` [(A) flufenacet, N-(4-fluorophenyl)-N-(1-methylethyl)-2-[[5-(trifluoromethyl)-1,3,4-thiadiazol-2-yl]oxy]acetamide]: the “activity LOLSS resistant” value in assay [1] is on record as 10%. Moreover, the “activity LOLSS sensitive” value in assay [1] came to 85%. The “activity POAAN” value in assay [2] was 60%; in assay [9] (Incorporation), 90%; in assay [9] (PE application), 70%. For the same compound, the “activity LOLPE” value is listed as 90% in assay [3] (setting [15]), 80% in [3] (setting [16]), 80% in [12] (Irrigation from above) and 78% in [12] (Irrigation from below). The “activity AVEFA” value in [4] (setting [15]) is listed as 80%; in assay [4] (setting [16]), 70%; in assay [7] (Irrigation from above), 85%; in [7] (Irrigation from below), 50%. In [5], the “activity MATCH IU soil” value is listed as 80%. Moreover, the “activity MATCH IU/EC73 soil” value in [5] is given as 0%. Besides, in assay [6], the “activity LOLPE IU soil” value is 89%. Further, in [6], the “activity LOLPE IU/EC73 soil” value came to 0%. Also, the results for the “activity MATCH” value in assay [8] (Irrigation from above) and in [8] (Irrigation from below) were 49% and 35%, respectively. Further, the “activity STEME resistant” value in assay [10] turned out to be 0%. Besides, in [10], the “activity STEME sensitive” value stood at 0%. Further, the “Difference Δ^D activity resistant to activity sensitive, STEME” value in [10] is listed as “Δ^D ± 0%”. In addition, the “activity MATCH 5 mm” value in assay [11] was 30%. The “activity MATCH 20 mm” value in assay [11] is 30%. Further, the “activity APESV” value in assay [13] was found to be 60%. Further, the “activity APESV 5 mm” value in [14] amounted to 65%. In assay [14], the “activity APESV 20 mm” value turned out to be 70%.
With `CCCN(CCC)C(=O)SCc1ccccc1` [(B) prosulfocarb, S-(phenylmethyl) dipropylcarbamothioate], in assay [1], the “activity LOLSS resistant” value was found to be 65%. In assay [1], the “activity LOLSS sensitive” value amounted to 85%. Moreover, the “activity POAAN” value in assay [2] is 30%; in [9] (Incorporation), 85%; in [9] (PE application) it was 35%. The “activity LOLPE” value in assay [3] (setting [15]) came out at 80%; in assay [3] (setting [16]), 0%; in [12] (Irrigation from above) it was 10%; in assay [12] (Irrigation from below) it was 5%. Moreover, the “activity AVEFA” value in assay [4] (setting [15]) is listed as 80%; in assay [4] (setting [16]) it was 10%; in assay [7] (Irrigation from above), 5%; in [7] (Irrigation from below), 10%. Further, the “activity MATCH IU soil” value in [5] is 10%. In addition, the “activity MATCH IU/EC73 soil” value in [5] stood at 0%. The “activity LOLPE IU soil” value in [6] came to 0%. For the same compound, in assay [6] (IU/EC73 soil vs IU soil), the “Difference of the soil types Δ^D, LOLPE” value was “Δ^D + 0%”. In [6], the “activity LOLPE IU/EC73 soil” value is 0%. The “activity MATCH” value in [8] (Irrigation from above) and in assay [8] (Irrigation from below) was 0% in each case. For the same compound, in assay [10], the “activity STEME resistant” value is on record as 40%. Further, the “activity STEME sensitive” value in assay [10] worked out at 70%. Moreover, in [11], the “activity MATCH 5 mm” value came to 0%. The “activity MATCH 20 mm” value in [11] was 0%. In [13], the “activity APESV” value is given as 20%. Also, the “activity APESV 5 mm” value in [14] is on record as 50%. For the same compound, the “activity APESV 20 mm” value in [14] is recorded as 20%.
In the case of `COc1nc(C)nc(NC(=O)NS(=O)(=O)c2cc(I)ccc2C(=O)O)n1` [iodosulfuron], in [1], the “activity LOLSS resistant” value is recorded as 50% and the “activity LOLSS sensitive” value came to 98%. For the same compound, in assay [10], the “activity STEME resistant” value came to 40% and the “activity STEME sensitive” value was 90%.
